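Values below derive from 48-hour exposures of cells grown in 96-well plates, with endpoints linearly interpolated between the two concentrations bracketing the appropriate inhibition level. Here, GI50 denotes the concentration required for 50% inhibition of growth.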 Active and inactive are the calls of the source. No stated cut-off is given here; in the data, active = GI50 up to about 1.1 µM and inactive = higher.
How the values were obtained:
Assay in all cases: DTP human tumour cell line panel, 48 h
[1] = system: HOP-62
[2] = system: UACC-257
[3] = system: A549
[4] = system: SF-539
[5] = system: DU-145
[6] = system: M14
[7] = system: LOX IMVI
[8] = system: T47D
[9] = system: MDA-MB-231
[10] = system: UO-31
[11] = system: UACC-62
[12] = system: RXF 393
[13] = system: A498
[14] = system: EKVX
[15] = system: ACHN
[16] = system: SK-MEL-2
[17] = system: HCT-116
[18] = system: COLO 205
[19] = system: SNB-75

Measured: GI50

CC(C)/C(Cl)=N\OC(=O)Nc1ccc(F)cc1
inactive: [1] 19.2 µM | [2] 14.3 µM | [3] 17.4 µM | [4] 16.9 µM | [5] 16.3 µM | [6] 4.06 µM | [7] 2.05 µM | [8] 6.53 µM | [9] 3.47 µM | [10] 5.85 µM | [11] 16 µM | [12] 16.1 µM | [13] 14.2 µM | [14] 5.62 µM | [15] 3.55 µM | [16] 17.7 µM | [17] 6.61 µM | [18] 2.63 µM

Nc1nc(Cl)cc(NC23CC4CC(CC(C4)C2)C3)n1
inactive: [1] > 100 µM | [2] > 100 µM | [3] 98.6 µM | [19] 26.2 µM | [4] 47.9 µM | [5] > 100 µM | [6] > 100 µM | [8] > 100 µM | [9] 94.6 µM | [10] > 100 µM | [11] > 100 µM | [12] > 100 µM | [13] > 100 µM | [14] > 100 µM | [15] > 100 µM | [16] 19.4 µM | [17] 78.2 µM | [18] 81.8 µM

N#CCCSC(=S)C1CCCC1=N (stereo unspecified)
inactive: [1] > 100 µM | [2] > 100 µM | [3] > 100 µM | [19] 3.88 µM | [4] > 100 µM | [5] > 100 µM | [6] > 100 µM | [8] 36 µM | [9] > 100 µM | [10] > 100 µM | [11] > 100 µM | [12] 42.4 µM | [13] > 100 µM | [14] > 100 µM | [15] > 100 µM | [16] > 100 µM | [17] > 100 µM | [18] > 100 µM

CCOC(=O)C(C(=O)OCC)C(=S)NC1OC(COC(C)=O)C(OC(C)=O)C(OC(C)=O)C1OC(C)=O (stereo unspecified)
inactive: [1] > 100 µM | [2] > 100 µM | [3] > 100 µM | [4] > 100 µM | [5] > 100 µM | [6] > 100 µM | [7] > 100 µM | [8] > 100 µM | [9] > 100 µM | [10] > 100 µM | [11] > 100 µM | [12] > 100 µM | [13] > 100 µM | [14] > 100 µM | [16] > 100 µM | [17] > 100 µM | [18] > 100 µM

NCC[Se][Se]CCN
inactive: [1] 8.67 µM | [2] 7.06 µM | [3] 6.03 µM | [19] 10.6 µM | [4] 10.6 µM | [5] 11.6 µM | [6] 3.83 µM | [8] 5.58 µM | [9] 12.8 µM | [10] 4.42 µM | [11] 17.3 µM | [12] 15.6 µM | [13] 9.18 µM | [14] 5.38 µM | [15] 10 µM | [16] 7.57 µM | [17] 4.28 µM | [18] 4.06 µM

COc1ccc(N2C(=O)/C(=C\c3cc(OC)c(OC)c(OC)c3)SC2c2ccccc2)cc1 (stereo unspecified)
inactive: [1] > 100 µM | [2] 57.3 µM | [3] > 100 µM | [4] > 100 µM | [5] > 100 µM | [6] 55.7 µM | [7] 29.6 µM | [8] 42.6 µM | [9] > 100 µM | [10] 46.7 µM | [11] 58.9 µM | [12] 42.1 µM | [13] > 100 µM | [14] 83.9 µM | [15] 62.4 µM | [16] > 100 µM | [17] 71.9 µM | [18] 62.5 µM

CC1CNC(c2ccc3c(c2)Cc2cc(C4=NC(C)CN4)ccc2-3)=N1 (stereo unspecified)
inactive: [1] 41 µM | [2] 32.6 µM | [3] > 100 µM | [19] 54.2 µM | [5] 65.8 µM | [6] 40.2 µM | [7] 47.2 µM | [8] 35.6 µM | [9] 33.6 µM | [10] > 100 µM | [11] 28.6 µM | [12] > 100 µM | [13] > 100 µM | [14] > 100 µM | [15] > 100 µM | [16] 23.2 µM | [17] 31.3 µM | [18] 54 µM

CC1=CN(c2ccccc2)S2=C1c1sc3c(c1N2c1ccc(Br)cc1)CCCC3 (stereo unspecified)
inactive: [1] > 100 µM | [2] > 100 µM | [3] > 100 µM | [4] > 100 µM | [5] > 100 µM | [6] > 100 µM | [7] 97.1 µM | [8] 91.2 µM | [9] > 100 µM | [10] > 100 µM | [11] > 100 µM | [12] > 100 µM | [13] > 100 µM | [14] > 100 µM | [15] > 100 µM | [16] > 100 µM | [17] > 100 µM | [18] > 100 µM

CCCCS(=O)(=O)CCC(N)C(=O)O (stereo unspecified)
inactive: [1] > 100 µM | [2] > 100 µM | [3] > 100 µM | [19] > 100 µM | [4] > 100 µM | [5] > 100 µM | [6] > 100 µM | [8] > 100 µM | [9] > 100 µM | [10] > 100 µM | [11] > 100 µM | [12] 36.1 µM | [13] > 100 µM | [14] > 100 µM | [15] > 100 µM | [16] > 100 µM | [17] > 100 µM | [18] > 100 µM

CCOC(=O)c1sc2nc(SC)nc3c2c1NCN3c1ccc2c(c1)OCO2
inactive: [1] 5.93 µM | [2] > 100 µM | [3] 7.83 µM | [4] 21.6 µM | [5] 12.1 µM | [6] 15.5 µM | [7] 23.8 µM | [8] 18.9 µM | [9] 13.4 µM | [10] 15.5 µM | [11] 12.2 µM | [12] 3.14 µM | [13] 33.3 µM | [14] 42.2 µM | [15] 5.94 µM | [16] 18.3 µM | [17] 27.5 µM | [18] 35.2 µM

Cc1ccc(SCC(CSCCO)OCn2cnc3c2N=C(N)NC32OCCO2)cc1 (stereo unspecified)
inactive: [1] > 100 µM | [2] > 100 µM | [3] > 100 µM | [19] > 100 µM | [4] > 100 µM | [5] > 100 µM | [6] > 100 µM | [7] > 100 µM | [8] > 100 µM | [9] > 100 µM | [10] > 100 µM | [12] > 100 µM | [13] > 100 µM | [14] 83 µM | [15] > 100 µM | [16] > 100 µM | [17] > 100 µM
